Data published in patent US11278582B2, “Compositions containing plant extracts and applications thereof” (TCI CO., LTD., priority 2017, dated 2022).

Test system: adipocytes differentiated from OP9 mouse stromal cell line (ATCC CRL-2749)
Assay: Oil red O staining of the fat content of adipocytes treated with plant extracts or combinations
Type: cell-based
Settings: for Relative fat content: 7-10 days, relative to control group (100%)
Protocol: The neutral fat content of cells was determined by oil red O staining. Prior to staining, the cells were washed twice with PBS and then fixed with 10% formaldehyde at room temperature for 30 minutes. The fixed cells were washed twice with PBS and rinsed with 60% isopropanol for 1 minute. Thereafter, the cells were stained with an oil red O staining solution (1.8 mg/ml oil red O dissolved in 60% isopropanol aqueous solution) for 1 hour, and then treated with 60% isopropanol for 5 seconds to remove excess dye. Lastly, 100% isopropanol was added to the cells and incubated with shaking for 10 minutes to dissolve the intracellular dye, and the absorbance of the cell suspension at 510 nm was measured using an ELISA (enzyme-linked immunosorbent assay) reader (BioTek). The statistical significance of differences between data was determined by Student's t-test using the Excel software.
Briefly, OP9 cells were seeded at 8×10^4 cells/well in 24-well culture plates, where each well contained 500 μl of pre-adipocyte expansion medium (90% DMEM, 20% FBS, and 1% penicillin/streptomycin), and cultured at 37° C. for 7 days. The medium was refreshed every 3 days during cell culture with adipocyte differentiation medium (90% DMEM medium, 20% FBS, and 1% penicillin/streptomycin). After 7 days, complete differentiation into adipocytes were confirmed by examining oil droplets formed in the cells using a microscope (ZEISS; at 400× magnification). Thereafter, each of the plant extracts or each of the compositions containing plant extracts, listed in TABLE 1, was added to the cells, which were then cultured at 37° C. for 7-10 days, during which the adipocyte differentiation medium was refreshed every 3 days. Finally, the medium was removed, and the cells of each group were washed with PBS and subjected to oil red O staining for determination of the fat content. The relative fat content is a ratio of the cellular fat content of the experimental group relative to that of the control group (expressed as a percentage). […]

Molecule CC(C)=CCC/C(C)=C/C=C/C(C)=C/C=C/C(C)=C/C=C/C=C(C)/C=C/C=C(C)/C=C/C=C(\C)CCC=C(C)C [Lycopene] has a Relative fat content (single treatment 0.015625 mg/ml) of 73.34%.

With CC1=C(/C=C/C(C)=C/C=C/C(C)=C/C=C/C=C(C)/C=C/C=C(C)/C=C/C2=C(C)CCCC2(C)C)C(C)(C)CCC1 [β-carotene] the Relative fat content (single treatment 0.5 mg/ml) was 99.00% and the “Change of the fat content of adipocytes compared to the control group (in words)” value (sole treatment, concentrations as in TABLE 1, Student's t-test) was “did not significantly reduce the fat content”.
